Five compounds from US9169279B2, “Crystallization method and bioavailability” (THAR PHARMACEUTICALS, INC., priority 2009, dated 2015) can be followed below.

The structures appear in SMILES notation.

The conditions of series [1]: room temperature.
Series [2] in a line: Dog PK study: zoledronic acid in serum after IV or oral capsule dosing, enteric or non-enteric coated, with or without excess coformer (LC/MS/MS). It counts as in vivo, Beagle dogs. As to conditions: beagle, po, 56 mg, Leg 7, 56.0 mg, enteric coated capsule, PO, read-out: Average serum concentration of 5 dogs. The text has this: This can be attributed to the fact that both animals have historically been used in the safety evaluation and PK screening studies and are recommended by appropriate regulatory agencies. […] Additional tests included ID administration in rats and administration of enteric coated capsules in dogs.
USA. Some animals have surgical catheters (jugular vein and intraduodenum) were implanted to the animals prior to the studies. Beagle dogs from Marshall Farms, N.Y., USA, weighing from (9-12 kg) were used in the studies presented herein. Surgical catheters (jugular vein) were implanted prior to the studies.
The dose volume of each dog was adjusted based upon the average weight of the dog. • ii. […]
Blood samples were placed without the use of an anticoagulant and allowed to sit at room temperature for approximately 30 minutes. Samples were then centrifuged at a temperature of 4° C., at a speed of 13,000 rpm, for 5 minutes. Serum was collected and split into two aliquots and stored frozen (−80° C.) until analysis.
In this study, capsules of particulate materials (zoledronic:DL-lysine:water complex and excess pure DL-lysine).

As to `O.O=P(O)(O)C(O)(Cn1ccnc1)P(=O)(O)O` [ZA monohydrate], the “Aqueous solubility, Conc. mg/mL” value in series [1] is listed as 1.57 mg/mL.
The same measure, in the same setting: in the case of `NCCCCC(N)C(=O)O.O.O=P(O)(O)C(O)(Cn1ccnc1)P(=O)(O)O` [ZA: DL-Lysine monohydrate] it was 13.9 mg/mL.
With `O=P(O)(O)C(O)(Cn1ccnc1)P(=O)(O)O` [Zoledronic acid monohydrate], the concentration at 0 h in series [2] (0 h) was found to be 0 ng/mL. Also, in series [2] (10 min), the concentration at 10 min stood at 0 ng/mL. Further, the concentration at 0.25 h in series [2] (0.25 h) stood at 0 ng/mL. Further, in series [2] (0.5 h), the concentration at 0.5 h stood at 0 ng/mL. The concentration at 0.75 h in series [2] (0.75 h) was 0 ng/mL. Also, the concentration at 1 h in series [2] (1 h) is 9.84 ng/mL. Moreover, in series [2] (1.5 h), the concentration at 1.5 h was 86.1 ng/mL. For the same compound, the concentration at 2 h in series [2] (2 h) was 109 ng/mL. The concentration at 4 h in series [2] (4 h) came out at 108 ng/mL. The concentration at 6 h in series [2] (6 h) is 14.2 ng/mL. The concentration at 8 h in series [2] (8 h) was determined as 4.57 ng/mL. Besides, in series [2] (24 h), the concentration at 24 h was found to be 0.5 ng/mL.
Turning to `NCCCCC(N)C(=O)O.O.O.O=P(O)(O)C(O)(Cn1ccnc1)P(=O)(O)O` [ZA: DL-Lysine dihydrate], in series [1], the “Aqueous solubility, Conc. mg/mL” value is on record as 6.85 mg/mL.
For the compound `NCCCC[C@H](N)C(=O)O.O.O.O=P(O)(O)C(O)(Cn1ccnc1)P(=O)(O)O` [ZA: L-Lysine dihydrate], the “Aqueous solubility, Conc. mg/mL” value in series [1] was 8.22 mg/mL.
